Columns and labels:
Assay type in all cases: functional
OVCAR-5 = assay: Cytotoxicity against human OVCAR5 cells assessed as cell growth at 1 uM after 1 to 11 days by MTT assay; settings: read-out: Activity
ACHN [1] = assay: Cytotoxicity against human ACHN cells assessed as cell growth at 1 uM after 1 to 11 days by MTT assay; settings: read-out: Activity
SN12C [2] = assay: Cytotoxicity against human SN12C cells assessed as cell growth at 1 uM after 1 to 11 days by MTT assay; settings: read-out: Activity
TK-10 [3] = assay: Cytotoxicity against human TK10 cells assessed as cell growth at 1 uM after 1 to 11 days by MTT assay; settings: read-out: Activity
SK-MEL-5 = assay: Cytotoxicity against human SK-MEL-5 cells assessed as cell growth at 10 uM after 1 to 11 days by MTT assay; settings: read-out: Activity
OVCAR-4 = assay: Cytotoxicity against human OVCAR4 cells assessed as cell growth at 10 uM after 1 to 11 days by MTT assay; settings: read-out: Activity
786-0 = assay: Cytotoxicity against human 786-0 cells assessed as cell growth at 10 uM after 1 to 11 days by MTT assay; settings: read-out: Activity
[4] = Cytotoxicity against human Hs 578T cells assessed as cell growth at 1 uM after 1 to 11 days by MTT assay; settings: read-out: Activity
NCI-H23 [5] = assay: Cytotoxicity against human NCI-H23 cells assessed as cell growth at 10 uM after 1 to 11 days by MTT assay; settings: read-out: Activity
COLO 205 [6] = assay: Cytotoxicity against human COLO205 cells assessed as cell growth at 10 uM after 1 to 11 days by MTT assay; settings: read-out: Activity
LOX IMVI = assay: Cytotoxicity against human LOXIMVI cells assessed as cell growth at 10 uM after 1 to 11 days by MTT assay; settings: read-out: Activity
M14 [7] = assay: Cytotoxicity against human M14 cells assessed as cell growth at 100 uM after 1 to 11 days by MTT assay; settings: read-out: Activity
SK-MEL-28 = assay: Cytotoxicity against human SK-MEL-28 cells assessed as cell growth at 100 uM after 1 to 11 days by MTT assay; settings: read-out: Activity
MDA-MB-231 = assay: Cytotoxicity against human MDA-MB-231 cells assessed as cell growth at 10 uM after 1 to 11 days by MTT assay; settings: read-out: Activity
[8] = Cytotoxicity against human Hs 578T cells assessed as cell growth at 10 uM after 1 to 11 days by MTT assay; settings: read-out: Activity
A549 = assay: Cytotoxicity against human A549 cells assessed as cell growth at 100 uM after 1 to 11 days by MTT assay; settings: read-out: Activity
A498 = assay: Cytotoxicity against human A498 cells assessed as cell growth at 100 uM after 1 to 11 days by MTT assay; settings: read-out: Activity
SN12C [9] = assay: Cytotoxicity against human SN12C cells assessed as cell growth at 100 uM after 1 to 11 days by MTT assay; settings: read-out: Activity
HL-60(TB) [10] = assay: Cytotoxicity against human HL-60(TB) cells assessed as cell growth at 1 mM after 1 to 11 days by MTT assay; settings: read-out: Activity
NCI-H226 = assay: Cytotoxicity against human NCI-H226 cells assessed as cell growth at 1 mM after 1 to 11 days by MTT assay; settings: read-out: Activity
NCI-H460 [11] = assay: Cytotoxicity against human NCI-H460 cells assessed as cell growth at 1 mM after 1 to 11 days by MTT assay; settings: read-out: Activity
HCC 2998 = assay: Cytotoxicity against human HCC2998 cells assessed as cell growth at 1 mM after 1 to 11 days by MTT assay; settings: read-out: Activity
KM12 = assay: Cytotoxicity against human KM12 cells assessed as cell growth at 1 mM after 1 to 11 days by MTT assay; settings: read-out: Activity
COLO 205 [12] = assay: Cytotoxicity against human COLO205 cells after 1 to 11 days by MTT assay
U-251 = assay: Cytotoxicity against human U251 cells assessed as cell growth at 100 uM after 1 to 11 days by MTT assay; settings: read-out: Activity
M14 [13] = assay: Cytotoxicity against human M14 cells assessed as cell growth at 1 mM after 1 to 11 days by MTT assay; settings: read-out: Activity
SN12C [14] = assay: Cytotoxicity against human SN12C cells assessed as cell growth at 1 mM after 1 to 11 days by MTT assay; settings: read-out: Activity
T47D [15] = assay: Cytotoxicity against human T47D cells assessed as cell growth at 1 mM after 1 to 11 days by MTT assay; settings: read-out: Activity
MDA-MB-468 [16] = assay: Cytotoxicity against human MDA-MB-468 cells assessed as cell growth at 1 mM after 1 to 11 days by MTT assay; settings: read-out: Activity
HL-60(TB) [17] = assay: Cytotoxicity against human HL-60(TB) cells after 1 to 11 days by MTT assay
ACHN [18] = assay: Cytotoxicity against human ACHN cells after 1 to 11 days by MTT assay
[19] = Cytotoxicity against human Hs 578T cells after 1 to 11 days by MTT assay
MDA-MB-468 [20] = assay: Cytotoxicity against human MDA-MB-468 cells after 1 to 11 days by MTT assay
CCRF-CEM = assay: Cytotoxicity against human CCRF-CEM cells assessed as cell growth at 0.1 uM after 1 to 11 days by MTT assay; settings: read-out: Activity
NCI-H23 [21] = assay: Cytotoxicity against human NCI-H23 cells assessed as cell growth at 0.1 uM after 1 to 11 days by MTT assay; settings: read-out: Activity
NCI-H460 [22] = assay: Cytotoxicity against human NCI-H460 cells assessed as cell growth at 0.1 uM after 1 to 11 days by MTT assay; settings: read-out: Activity
HT-29 = assay: Cytotoxicity against human HT-29 cells assessed as cell growth at 0.1 uM after 1 to 11 days by MTT assay; settings: read-out: Activity
ACHN [23] = assay: Cytotoxicity against human ACHN cells assessed as cell growth at 0.1 uM after 1 to 11 days by MTT assay; settings: read-out: Activity
TK-10 [24] = assay: Cytotoxicity against human TK10 cells assessed as cell growth at 0.1 uM after 1 to 11 days by MTT assay; settings: read-out: Activity
DU-145 = assay: Cytotoxicity against human DU145 cells assessed as cell growth at 0.1 uM after 1 to 11 days by MTT assay; settings: read-out: Activity
T47D [25] = assay: Cytotoxicity against human T47D cells assessed as cell growth at 0.1 uM after 1 to 11 days by MTT assay; settings: read-out: Activity
SW-620 = assay: Cytotoxicity against human SW620 cells assessed as cell growth at 1 uM after 1 to 11 days by MTT assay; settings: read-out: Activity
SNB-75 = assay: Cytotoxicity against human SNB75 cells assessed as cell growth at 1 uM after 1 to 11 days by MTT assay; settings: read-out: Activity
Malme-3M = assay: Cytotoxicity against human MALME-3M cells assessed as cell growth at 1 uM after 1 to 11 days by MTT assay; settings: read-out: Activity
[26] = read-out: LC50 (the source's name)

## O=C1Nc2ncccc2/C1=C1/Nc2ccccc2/C1=N\O
OVCAR-5
  growth at 1 µM: 89%
ACHN [1]
  growth at 1 µM: 95%
SN12C [2]
  growth at 1 µM: 89%
TK-10 [3]
  growth at 1 µM: 104%
SK-MEL-5
  growth at 10 µM: 94%
OVCAR-4
  growth at 10 µM: 96%
786-0
  growth at 10 µM: 114%
[4]
  growth at 1 µM: 98%
NCI-H23 [5]
  growth at 10 µM: 83%
COLO 205 [6]
  growth at 10 µM: 84%
LOX IMVI
  growth at 10 µM: 86%
M14 [7]
  growth at 100 µM: 46%
SK-MEL-28
  growth at 100 µM: 54%
MDA-MB-231
  growth at 10 µM: 76%
[8]
  growth at 10 µM: 78%
A549
  growth at 100 µM: 15%
A498
  growth at 100 µM: 18%
SN12C [9]
  growth at 100 µM: 37%
HL-60(TB) [10]
  growth at 1000 µM: 7%
NCI-H226
  growth at 1000 µM: 13%
NCI-H460 [11]
  growth at 1000 µM: 32%
HCC 2998
  growth at 1000 µM: 36%
KM12
  growth at 1000 µM: 6%
COLO 205 [12]
  GI50: 1.73 µM
  TGI: > 100 µM
COLO 205 [12]; [26]
  CC50: > 100 µM
U-251
  growth at 100 µM: 55%
M14 [13]
  growth at 1000 µM: 21%
SN12C [14]
  growth at 1000 µM: 36%
T47D [15]
  growth at 1000 µM: 21%
MDA-MB-468 [16]
  growth at 1000 µM: 13%
HL-60(TB) [17]
  GI50: 5.23 µM
  TGI: > 100 µM
HL-60(TB) [17]; [26]
  CC50: > 100 µM
ACHN [18]
  GI50: 2.68 µM
  TGI: > 100 µM
ACHN [18]; [26]
  CC50: > 100 µM
[19]
  GI50: 2.39 µM
  TGI: > 100 µM
[19]; [26]
  CC50: > 100 µM
MDA-MB-468 [20]
  GI50: 3.01 µM
  TGI: > 100 µM
MDA-MB-468 [20]; [26]
  CC50: > 100 µM
CCRF-CEM
  growth at 0.1 µM: 94%
NCI-H23 [21]
  growth at 0.1 µM: 96%
NCI-H460 [22]
  growth at 0.1 µM: 110%
HT-29
  growth at 0.1 µM: 99%
ACHN [23]
  growth at 0.1 µM: 102%
TK-10 [24]
  growth at 0.1 µM: 101%
DU-145
  growth at 0.1 µM: 102%
T47D [25]
  growth at 0.1 µM: 100%
SW-620
  growth at 1 µM: 94%
SNB-75
  growth at 1 µM: 90%
Malme-3M
  growth at 1 µM: 89%
